# Reference: patent US20070128217A1 (priority 2003, published 2007)
# How the values were obtained:
# [1] = system: antibodies in sera from SARS patients (sera 1a, 1b, 2, 6, 37, 62, London, SARS-yellow, SARS-green); assay type: binding, human; parameters: Binding of serum 6 to linear peptides of protein X1 of SARS-CoV Urbani / Binding of serum 37 to linear peptides of protein X1 of SARS-CoV Urbani / Binding of serum 6 to looped/cyclic peptide (PEPSCAN-ELISA) / Binding of serum 37 to looped/cyclic peptide (PEPSCAN-ELISA) / Binding of serum 37 to looped/cyclic peptides of protein X1 of SARS-CoV Urbani / Binding of serum 6 to linear peptides of protein X2 / Binding of serum 37 to linear peptides of protein X2 / Binding of serum 37 to looped/cyclic peptides of protein X2 of SARS-CoV Urbani / Binding of serum 6 to linear peptides of protein M of SARS-CoV Urbani / Binding of serum 37 to linear peptides of protein M of SARS-CoV Urbani / Binding of serum 6 to looped/cyclic peptides of protein M of SARS-CoV Urbani / Binding of serum 37 to looped/cyclic peptides of protein M of SARS-CoV Urbani / Binding of serum 6 to linear peptides of protein X3 of SARS-CoV Urbani / Binding of serum 37 to linear peptides of protein X3 of SARS-CoV Urbani / Binding of serum 37 to looped/cyclic peptides of protein X3 of SARS-CoV Urbani / Binding of serum 6 to linear peptides of protein X4 of SARS-CoV Urbani / Binding of serum 37 to linear peptides of protein X4 of SARS-CoV Urbani / Binding of serum 37 to looped/cyclic peptides of protein X4 of SARS-CoV Urbani / Binding of serum 6 to linear peptides of protein X5 of SARS-CoV Urbani / Binding of serum 37 to linear peptides of protein X5 of SARS-CoV Urbani / Binding of serum 37 to looped/cyclic peptides of protein X5 of SARS-CoV Urbani / Binding of serum 6 to linear peptides of protein N of SARS-CoV Urbani / Binding of serum 37 to linear peptides of protein N of SARS-CoV Urbani / Binding of serum 6 to linear peptide (PEPSCAN-ELISA) / Binding of serum 1a to looped/cyclic peptides of protein N of SARS-CoV Urbani / Binding of serum 1b to looped/cyclic peptides of protein N of SARS-CoV Urbani / Binding of serum 2 to looped/cyclic peptides of protein N of SARS-CoV Urbani / Binding of serum 6 to looped/cyclic peptides of protein N of SARS-CoV Urbani / Binding of serum 37 to looped/cyclic peptides of protein N of SARS-CoV Urbani / Binding of serum 62 to looped/cyclic peptides of protein N of SARS-CoV Urbani / Binding of serum London to looped/cyclic peptides of protein N of SARS-CoV Urbani / Binding of serum SARS-green to looped/cyclic peptides of protein N of SARS-CoV Urbani: unit not given here
# [2] = system: control sera (pooled serum of ten healthy LUMC hospital workers; commercial negative donor pooled serum from the Dutch bloodbank); assay type: binding, human; parameters: Binding of Control serum LUMC to linear peptides / Binding of Control serum Blood-bank to linear peptides / Binding of Control serum LUMC to looped peptides / Binding of Control Serum Blood-Bank to Looped peptides / Binding of Control serum LUMC to linear peptides of the protein M of SARS-CoV Urbani / Binding of Control serum Blood-bank to linear peptides of the protein M of SARS-CoV Urbani / Binding of Control serum LUMC to looped peptides of the protein M of SARS-CoV Urbani / Binding of Control Serum Blood-Bank to Looped peptides of the protein M of SARS-CoV Urbani: unit not given here
# [3] = system: rabbit serum obtained by immunizing a rabbit with the SARS-CoV strain Frankfurt 1; assay type: binding; parameters: Binding of a rabbit serum to linear peptides / Binding of a rabbit serum to looped peptides / Rabbit serum linear peptides / Rabbit serum looped peptides / Binding of a rabbit serum to linear peptides of protein N of SARS-CoV Urbani (Rabbit serum linear peptides) / Binding of a rabbit serum to looped/cyclic peptides of protein N of SARS-CoV Urbani (Rabbit serum looped peptides): unit not given here
sequence,measurement,setting,value
TIAEILIIIMRTFRI,Binding of serum 1a to linear peptides of protein X3 of SARS-CoV Urbani,[1],0.8
same,Binding of serum 1a to looped/cyclic peptides of protein X3 of SARS-CoV Urbani,[1],0.7
same,Binding of serum 1b to linear peptides of protein X3 of SARS-CoV Urbani,[1],0.3
same,Binding of serum 1b to looped/cyclic peptides of protein X3 of SARS-CoV Urbani,[1],0.4
same,Binding of serum 2 to linear peptides of protein X3 of SARS-CoV Urbani,[1],0.7
same,Binding of serum 2 to looped/cyclic peptides of protein X3 of SARS-CoV Urbani,[1],0.6
same,Binding of serum 6 to linear peptides of protein X3 of SARS-CoV Urbani,[1],0.7
same,Binding of serum 6 to looped/cyclic peptides of protein X3 of SARS-CoV Urbani,[1],0.4
same,Binding of serum 37 to linear peptides of protein X3 of SARS-CoV Urbani,[1],0.6
same,Binding of serum 37 to looped/cyclic peptides of protein X3 of SARS-CoV Urbani,[1],0.3
same,Binding of serum 62 to linear peptides of protein X3 of SARS-CoV Urbani,[1],0.7
same,Binding of serum 62 to looped/cyclic peptides of protein X3 of SARS-CoV Urbani,[1],0.4
same,Binding of serum London to linear peptides of protein X3 of SARS-CoV Urbani,[1],0.7
same,Binding of serum London to looped/cyclic peptides of protein X3 of SARS-CoV Urbani,[1],0.2
same,Binding of serum SARS-green to linear peptides of protein X3 of SARS-CoV Urbani,[1],0.3
same,Binding of serum SARS-green to looped/cyclic peptides of protein X3 of SARS-CoV Urbani,[1],0.4
same,Binding of serum SARS-yellow to linear peptides of protein X3 of SARS-CoV Urbani,[1],0.3
same,Binding of serum SARS-yellow to looped/cyclic peptides of protein X3 of SARS-CoV Urbani,[1],0.5
same,Binding of Control Serum Blood-Bank to Looped peptides of the protein X3 of SARS-CoV Urbani,[2],1.1
same,Binding of Control serum Blood-bank to linear peptides of the protein X3 of SARS-CoV Urbani,[2],0.8
same,Binding of Control serum LUMC to linear peptides of the protein X3 of SARS-CoV Urbani,[2],0.6
same,Binding of Control serum LUMC to looped peptides of the protein X3 of SARS-CoV Urbani,[2],0.7
same,Rabbit serum linear peptides,[3],0.2
same,Rabbit serum looped peptides,[3],0.0
TIDGSSGVANPAMDP,Binding of serum 1a to linear peptides of protein X1 of SARS-CoV Urbani,[1],0.6
same,Binding of serum 1a to looped/cyclic peptides of protein X1 of SARS-CoV Urbani,[1],0.5
same,Binding of serum 1b to linear peptides of protein X1 of SARS-CoV Urbani,[1],0.6
same,Binding of serum 1b to looped/cyclic peptides of protein X1 of SARS-CoV Urbani,[1],0.4
same,Binding of serum 2 to linear peptides of protein X1 of SARS-CoV Urbani,[1],0.6
same,Binding of serum 2 to looped/cyclic peptides of protein X1 of SARS-CoV Urbani,[1],0.4
same,Binding of serum 6 to linear peptides of protein X1 of SARS-CoV Urbani,[1],0.6
same,Binding of serum 6 to looped/cyclic peptides of protein X1 of SARS-CoV Urbani,[1],0.3
same,Binding of serum 37 to linear peptides of protein X1 of SARS-CoV Urbani,[1],0.6
same,Binding of serum 37 to looped/cyclic peptides of protein X1 of SARS-CoV Urbani,[1],0.3
same,Binding of serum 62 to linear peptides of protein X1 of SARS-CoV Urbani,[1],0.6
same,Binding of serum 62 to looped/cyclic peptides of protein X1 of SARS-CoV Urbani,[1],0.3
same,Binding of serum London to linear peptides of protein X1 of SARS-CoV Urbani,[1],0.4
same,Binding of serum London to looped/cyclic peptides of protein X1 of SARS-CoV Urbani,[1],0.2
same,Binding of serum SARS-green to linear peptides of protein X1 of SARS-CoV Urbani,[1],0.4
same,Binding of serum SARS-green to looped/cyclic peptides of protein X1 of SARS-CoV Urbani,[1],0.3
same,Binding of serum SARS-yellow to linear peptides of protein X1 of SARS-CoV Urbani,[1],0.3
same,Binding of serum SARS-yellow to looped/cyclic peptides of protein X1 of SARS-CoV Urbani,[1],0.2
same,Binding of Control Serum Blood-Bank to Looped peptides,[2],0.4
same,Binding of Control serum Blood-bank to linear peptides,[2],0.4
same,Binding of Control serum LUMC to linear peptides,[2],0.6
same,Binding of Control serum LUMC to looped peptides,[2],0.4
same,Binding of a rabbit serum to linear peptides,[3],0.1
same,Binding of a rabbit serum to looped peptides,[3],0.4
TIPLQASLPFGWLVI,Binding of serum 1a to linear peptides of protein X1 of SARS-CoV Urbani,[1],0.8
same,Binding of serum 1a to looped/cyclic peptide (PEPSCAN-ELISA),[1],0.6
same,Binding of serum 1b to linear peptides of protein X1 of SARS-CoV Urbani,[1],0.5
same,Binding of serum 1b to looped/cyclic peptide (PEPSCAN-ELISA),[1],0.4
same,Binding of serum 2 to linear peptides of protein X1 of SARS-CoV Urbani,[1],0.6
same,Binding of serum 2 to looped/cyclic peptide (PEPSCAN-ELISA),[1],0.5
same,Binding of serum 6 to linear peptides of protein X1 of SARS-CoV Urbani,[1],0.5
same,Binding of serum 6 to looped/cyclic peptide (PEPSCAN-ELISA),[1],0.4
same,Binding of serum 37 to linear peptides of protein X1 of SARS-CoV Urbani,[1],0.7
same,Binding of serum 37 to looped/cyclic peptide (PEPSCAN-ELISA),[1],0.6
same,Binding of serum 62 to linear peptides of protein X1 of SARS-CoV Urbani,[1],0.8
same,Binding of serum 62 to looped/cyclic peptide (PEPSCAN-ELISA),[1],0.7
same,Binding of serum London to linear peptides of protein X1 of SARS-CoV Urbani,[1],0.3
same,Binding of serum London to looped/cyclic peptide (PEPSCAN-ELISA),[1],0.2
same,Binding of serum SARS-green to linear peptides of protein X1 of SARS-CoV Urbani,[1],0.4
same,Binding of serum SARS-green to looped/cyclic peptide (PEPSCAN-ELISA),[1],0.4
same,Binding of serum SARS-yellow to linear peptides of protein X1 of SARS-CoV Urbani,[1],0.4
same,Binding of serum SARS-yellow to looped/cyclic peptide (PEPSCAN-ELISA),[1],0.5
same,Binding of Control Serum Blood-Bank to Looped peptides,[2],0.7
same,Binding of Control serum Blood-bank to linear peptides,[2],0.8
same,Binding of Control serum LUMC to linear peptides,[2],0.7
same,Binding of Control serum LUMC to looped peptides,[2],0.7
same,Binding of a rabbit serum to linear peptides,[3],0.1
same,Binding of a rabbit serum to looped peptides,[3],0.5
TIVVTEGDGISTPKL,Binding of serum 1a to linear peptides of protein X1 of SARS-CoV Urbani,[1],0.6
same,Binding of serum 1a to looped/cyclic peptides of protein X1 of SARS-CoV Urbani,[1],0.7
same,Binding of serum 1b to linear peptides of protein X1 of SARS-CoV Urbani,[1],0.5
same,Binding of serum 1b to looped/cyclic peptides of protein X1 of SARS-CoV Urbani,[1],0.7
same,Binding of serum 2 to linear peptides of protein X1 of SARS-CoV Urbani,[1],0.5
same,Binding of serum 2 to looped/cyclic peptides of protein X1 of SARS-CoV Urbani,[1],0.5
same,Binding of serum 6 to linear peptides of protein X1 of SARS-CoV Urbani,[1],0.6
same,Binding of serum 6 to looped/cyclic peptides of protein X1 of SARS-CoV Urbani,[1],0.4
same,Binding of serum 37 to linear peptides of protein X1 of SARS-CoV Urbani,[1],0.6
same,Binding of serum 37 to looped/cyclic peptides of protein X1 of SARS-CoV Urbani,[1],0.7
same,Binding of serum 62 to linear peptides of protein X1 of SARS-CoV Urbani,[1],0.5
same,Binding of serum 62 to looped/cyclic peptides of protein X1 of SARS-CoV Urbani,[1],0.6
same,Binding of serum London to linear peptides of protein X1 of SARS-CoV Urbani,[1],0.3
same,Binding of serum London to looped/cyclic peptides of protein X1 of SARS-CoV Urbani,[1],0.2
same,Binding of serum SARS-green to linear peptides of protein X1 of SARS-CoV Urbani,[1],0.3
same,Binding of serum SARS-green to looped/cyclic peptides of protein X1 of SARS-CoV Urbani,[1],0.6
same,Binding of serum SARS-yellow to linear peptides of protein X1 of SARS-CoV Urbani,[1],0.3
same,Binding of serum SARS-yellow to looped/cyclic peptides of protein X1 of SARS-CoV Urbani,[1],0.5
same,Binding of Control Serum Blood-Bank to Looped peptides,[2],0.6
same,Binding of Control serum Blood-bank to linear peptides,[2],0.5
same,Binding of Control serum LUMC to linear peptides,[2],0.5
same,Binding of Control serum LUMC to looped peptides,[2],0.7
same,Binding of a rabbit serum to linear peptides,[3],0.1
same,Binding of a rabbit serum to looped peptides,[3],0.5
